Converted amounts (≈) assume the structure as drawn. The source made the active and inactive calls. The rule behind the calls is not given here.

Data set [1] can be described thus: Solubility of the compound in DMSO/DMF. Type of data set: physicochemical.
The subject of data set [2] is Cell membrane. Kind of data set: Disruption of cell membrane in Staphylococcus aureus ATCC 29213 assessed as increase in red fluorescence at 5 to 10 times MIC measured after 4 hrs by DAPI and PI staining based fluorescence microscopic analysis.
Data set [3] can be described thus: Toxicity in female BALB/c mouse assessed as effect on lung measured after 24 hrs by H and E staining based analysis. Type of data set: tissue-based. As to conditions: in vivo.
For data set [4], the system named is Staphylococcus aureus. Nature of the data set: Antibacterial activity against methicillin-resistant Staphylococcus aureus NRS 193 assessed as reduction in bacterial growth measured after 18 to 24 hrs by broth microdilution method. Type of data set: functional. The settings on record: time 18-24 hrs. A general note: In broth dilution the organism is exposed to a series of concentrations in liquid medium.

Data set [5] deals with Acinetobacter baumannii. Kind of data set: Antibacterial activity against Acinetobacter baumannii BAA 1605 assessed as reduction in bacterial growth measured after 18 to 24 hrs by broth microdilution method. Type of data set: functional. The settings on record: time 18-24 hrs.
Data set [6] in a line: Drug distribution in female BALB/c mouse lung measured after 24 hrs. The settings on record: in vivo. The format is ADME, tissue-based.
The test system of data set [7] is Staphylococcus aureus. Nature of the data set: Antibacterial activity against methicillin-resistant Staphylococcus aureus NRS 100 assessed as reduction in bacterial growth measured after 18 to 24 hrs by broth microdilution method. The format is functional. As to conditions: time 18-24 hrs.
For data set [8], the system named is Staphylococcus aureus. Nature of the data set: Antibacterial activity against Staphylococcus aureus ATCC 29213 infected in female BALB/c mouse skin infection model assessed as reduction of abscess in subcutaneous tissue at 10 times MIC pre-infected with bacteria followed by compound addition and measured after 24 hrs. The format is functional, organism-based.

The subject of data set [9] is Staphylococcus aureus. Nature of the data set: Inhibition of biofilm in Staphylococcus aureus ATCC 29213 at 1 times MIC measured after 12 hrs by crystal violet staining based analysis relative to control. The format is functional.
For data set [10], the system named is Staphylococcus aureus. Nature of the data set: Inhibition of biofilm in Staphylococcus aureus ATCC 29213 at 2 times MIC measured after 12 hrs by crystal violet staining based analysis relative to control. The format is functional.
Data set [11] has as its system Cell membrane. Nature of the data set: Induction of cytoplasmic membrane depolarization in Staphylococcus aureus ATCC 29213 assessed as fold increase in fluorescence intensity at 10 times MIC measured after 30 min by DiSC3-5 dye based fluorescence method. Type of data set: subcellular.
In data set [12] the test system is Staphylococcus aureus. Nature of the data set: Inhibition of biofilm in Staphylococcus aureus ATCC 29213 at 1 ug/ml measured after 12 hrs by crystal violet staining based analysis. The format is functional, organism-based. The settings on record: dose 1.0 µg/ml.
The test system of data set [13] is Klebsiella pneumoniae. Kind of data set: Antibacterial activity against Klebsiella pneumoniae BAA 1705 assessed as reduction in bacterial growth measured after 18 to 24 hrs by broth microdilution method. The format is functional. The settings on record: time 18-24 hrs.

What is called solubility is how much of the substance goes into solution per volume. Read a high solubility as much dissolved substance. What is called MIC is the least concentration at which growth counts as inhibited. Turning to `O=C(O)c1cccc(C(=O)Nc2c(C(c3ccc(F)cc3)c3ccc(F)cc3)cc(Cl)cc2C(c2ccc(F)cc2)c2ccc(F)cc2)c1`, the solubility in data set [1] worked out at 570 mg/mL (≈ 838000 µM). Also, the result in data set [2] and in [8] was Active. In addition, the Activity entry in data set [3] is on record as “Non-toxic”. In addition, the MIC in [4] is 2 µg/mL (≈ 2.94 µM); in [5], over 64 µg/mL; in data set [7] it was 2 µg/mL (≈ 2.94 µM); in [13], over 64 µg/mL. Besides, the Drug uptake in [6] was 9.91 nmol/mg. Moreover, the “inhibition (INH)” value in data set [9] was determined as 91%; in data set [10] it was 95%. In data set [11], the fold change (FC) turned out to be 4. Moreover, the inhibition entry in data set [12] is “Active”.

Source of the values: ChEMBL document CHEMBL6177993, “De Novo 3-(Phenylcarbamoyl) Benzoate Analogues: Efficacy against Multidrug-Resistant S. aureus and Elucidation of the Biodistribution Profile” (J Med Chem, 2025).
